Reference: patent US20160346392A1, “PULSE PHOTODYNAMIC TREATMENT OF SKIN CONDITIONS” (GALDERMA RESEARCH & DEVELOPMENT, priority 2013, published 2016)
“Also recorded” adds a separate entry of the source. Where two headings read alike, the source gives them in different places.

How the values were obtained:
[1] = Method A investigation of efficacy and inflammation with 30 min pulse exposure PDT; type: in vivo
Experimental: (§1) The formation of PPIX after 3 hours is seen in FIG. 8, and the relation to inflammation is seen in FIG. 9. […] The results are illustrated in Column 3 in FIGS. 4, 5, 6, and 7. […] Pain level is not changed.

acne [2] = details: cream 16% wt. applied to face for 3 hours, non-coherent red light, repeated 2 weeks later; cited from earlier work
PpIX fluorescence = test: Metvix pulse time investigation (Method B) on healthy volunteers: PpIX fluorescence; type: in vivo, human; details: short (30 min) pulse vs conventional 3-hour exposure; Table 1 and FIG. 8
Experimental: as §1
Twenty-four healthy male volunteers of Scandinavian ancestry were included in the study (mean age 30 years, range 20-51). A treatment area was selected on the inside of both forearms of the volunteer. Each treatment area was divided into four minor treatment fields of the size 2×5 cm with at least 3 cm between each field using a prefabricated flexible template. In order to imitate skin lesions all fields were tape stripped 10 times with occlusive dressing before treatment (Tegaderm™ Roll, 3M, Glostrup, Denmark). […]
All fields were covered with light-impermeable, occlusive dressing. […] During and after illumination pain was recorded. […]
5-MAL-induced PpIX fluorescence was depicted non-invasively using a fluorescence camera (Medeikonos AB, Gothenburg, Sweden). The amount of PpIX fluorescence was calculated from the photographs by the program MatLab® (MatLab®, MathWorks, Natic, US). The amount of fluorescence was measured before tape stripping and cream application (baseline) and before and after illumination.
The photo bleaching is then the difference in PpIX fluorescence (AU) calculated from the pre and post illumination images.

acne [3] = details: 20% ALA acid applied to back for 3 hours, 150 J/cm2 broad band light; cited from earlier work

Row | inflammation (erythema) ([1]; 30 min pulse exposure vs conventional 180 min exposure, FIGS. 6, 7) | pain level ([1]; 30 min pulse exposure vs conventional exposure, FIG. 4) | SMILES | cure rate / efficacy ([1]; 30 min pulse exposure vs conventional exposure, FIG. 5) | efficacy in treatment of acne (acne [2]) | side effects of treatment (acne [2]) | PPIX concentration, pulse exposure versus conventional 3-hour exposure (PpIX fluorescence) | efficacy in treatment of acne (acne [3]) | side effects of treatment (acne [3])
1 | less inflammation | not changed | COC(=O)CCC(=O)CN [5-MAL, 5-ALA methyl ester] | unchanged efficacy; also recorded: as efficient | effective in the treatment of acne | caused pain and induced severe inflammation | clearly lower than for the conventional 3 hour exposure | – | –
2 | – | – | NCC(=O)CCC(=O)O [ALA, 5-amino-4-oxo-pentanoic acid] | – | – | – | – | effective for the treatment of acne | erythema, hyperpigmentation and exfoliation were often seen after PDT treatment
